# Test results taken from patent US20090215669A1, “COMPOSITIONS AND METHODS FOR TREATMENT OF DIABETES” (DIA-B TECH LIMITED, priority 2005, published 2009).
# Read-outs that look alike come from different tables or passages of the source. Marks after values point to notes of the source that are not given here. Peptide text beside a SMILES is read from it.
# Tests used:
# [1] = Solubility of ISF402 at various pH and temperatures; assay type: physicochemical; settings: for solubility at 24 h: 25 mM ammonium bicarbonate buffer
# Experimental: Solid ISF402 was added to 50 μL aliquots of 25 mM ammonium bicarbonate buffer until no more solid dissolved. The total weight of the peptide added to each tube was noted and the pH of each solution was adjusted to approximately pH 8 by the addition of 1 M NaOH. Samples were incubated with constant shaking at either room temperature (23-25° C.) or 37° C. for 24 hours then centrifuged at 16000×g for 15 minutes. 2 μL aliquots of each supernatant were diluted with milliQ-H2O to an estimated concentration of 1 mg/mL. Samples were stored at −20° C. for later analysis by HPLC using UV detection (214 nm) to determine the exact concentration of ISF402. The pH of the remaining supernatant was measured. The pH was lowered by the addition of 2 μL of 5M HCl and tube contents were mixed and incubated under the two temperature conditions. The cycle of pH lowering, incubation and sampling was repeated until a pH of between 2 and 3 was achieved.
# [2] = tested on: C2C12 mouse myotube cells; experiment: Microphysiometry (extracellular acidification rate) in C2C12 cells; assay type: cell-based
# Experimental: C2C12 mouse myotube cells were seeded onto supports and differentiated. The cells were then placed in a Cytosensor (Molecular Devices) in non-buffered pH sensitive RPMI 1640 media. Once the cells were equilibrated at 37° C. with RPMI 1640 media (zero control), ISF402, insulin or ZnCl2 at increasing concentrations were added for a duration of 20 minutes, for each treatment. The Cytosensor measured the changed in pH as a response of cells to the treatment.
# The activity of the combination of insulin and ISF402 in insulin sensitisation was explored in C2C12 muscle cells using microphysiometry, a technique that measures extracellular acidification as an indicator of cell metabolism. An ISF402 concentration of 0.1 μM was used to test for sensitisation of insulin responsiveness as this concentration produces a sub-maximal (˜20%) response in C2C12 cells. In the presence of 0.1 μM ISF402, the cellular response to insulin was increased as shown by increasing extracellular acidification rate (ECAR) with increasing concentrations of insulin, particularly at low insulin concentrations (FIG. 3).
# [3] = tested on: female Zucker fa/fa rats; experiment: Oral ISF402 followed by intraperitoneal insulin tolerance test (IPITT) in female Zucker fa/fa rats; assay type: in vivo, rat
# Experimental: Female Zucker fa/fa rats were purchased from Monash Animal Services (Monash University, Clayton, Australia). Rats were housed in the Biochemistry and Molecular Biology Animal House (Monash University, Victoria, Australia) and allowed to acclimatize for 7 days in an environmentally controlled room at 22° C. Rats were fed normal chow and water ad libitum. All experiments were performed according to Monash University Animal Care and Ethics Committee guidelines and approved by the Monash University Animal ethics committee. Rats of 16-18 weeks of age were fasted overnight with free access to water then anaesthetised with pentobarbitone (Nembutal, Phone Merieux, QLD, Australia) administered intraperitoneally (IP) at 35 mg/kg body weight. Blood glucose was monitored using Medisense glucometers (Abbott Laboratories, Abbott Park, Ill.) for one hour prior to administration of test substances. ISF402 was administered at 3 mg/kg by IP with 2 U/kg of bovine insulin (n=6) and controls were injected IP with insulin alone (n=8). Two experiments were performed where ISF402 was given orally. In the first experiment, controls were given saline orally by gavage (n=5) and the test group were given ISF402 orally at 15 mg/kg (n=5). After 15 minutes, insulin (2 U/kg) was injected IP. The procedure was repeated three days later with the control rats once again given saline and the treated rats given 30 mg/kg ISF402. A second experiment was performed on a separate group of rats where controls were given saline orally as before (n=5) and treated rats were given ISF402 orally at 30 mg/kg (n=5), followed 15 minutes later by IP injection of 2 U/kg insulin. For both experiments, after administration of peptide blood was collected from the tail vein and glucose measured immediately. Serum samples were also collected for later measurement of C-peptide and insulin using Linco Rat C-peptide and Insulin RIA kits according to the manufacturer's instructions (Linco Research Inc, St Charles, Mo.).
# [4] = tested on: female Zucker fa/fa rats; experiment: Intravenous injection of female Zucker fa/fa rats: blood glucose, serum insulin, C-peptide, triglyceride; assay type: in vivo, rat; settings: for Change in Serum Triglyceride levels compared to the 0 time point: ISF402 alone 4.5 mg/kg, insulin, insulin + ISF402 1.5 mg/kg, mean ± SEM (n = 5); for maximum reduction in blood glucose: 45 minutes after administration
# [5] = biological target: T1, insulin multimer (Bos taurus, UniProt P01317); experiment: Gel filtration chromatography of insulin mixed with ISF402; assay type: biochemical
# T1 construct: mixing insulin with ISF402 and separating molecular complexes by gel filtration chromatography
# T1 sequence (P01317 25-54 limits assumed): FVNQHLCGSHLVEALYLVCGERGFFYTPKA
# T1 sequence (P01317 85-105 limits assumed): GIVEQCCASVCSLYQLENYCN
# From the text: The effect of ISF402 on the multimerisation of insulin was examined in vitro by mixing insulin with ISF402 and separating molecular complexes by gel filtration chromatography, which separates on the basis of size (FIG. 7).
# [6] = tested on: male Zucker fa/fa rats; experiment: Intravenous injection of male Zucker fa/fa rats: blood glucose, serum insulin, C-peptide; assay type: in vivo, rat; settings: 1 U/kg of bovine insulin iv
# Experimental: The Monash University Animal Ethics Committee approved all procedures performed on experimental animals. Zucker rats were purchased from the Monash University Central Animal Facility. Insulin and ISF401 were injected through the femoral vein while the rat was under anaesthesia (Pentobarbitone) and rats were humanely killed while still unconscious at the end of the procedure. The insulin concentration used for all in vivo experiments was 1 unit per kg of body weight. Blood was collected from the tail vein and glucose concentrations were measured using a Medisense glucometer. Insulin and C-peptide concentrations were measured in serum samples using a Linco Rat Insulin RIA kit according to the manufacturers instructions. Group sizes were between 5 and 8 rats per treatment.
# To investigate sex differences in the insulin sensitizing effect of ISF402, age-matched male Zucker fa/fa rats were injected intravenously with ISF402 (1.5 mg/kg) and insulin as described above for female rats. […] In comparison, co-injection of ISF402 with the insulin led to a decrease in blood glucose 20 minutes after injection which remained low for a further 25 minutes (FIG. 13A). The greatest reduction in blood glucose was 0.98±0.31 mmol/L and was achieved 30 minutes after injection. […]
# [7] = tested on: female Zucker fa/fa rats; experiment: Intraperitoneal injection of insulin with ISF402 in female Zucker fa/fa rats; assay type: in vivo, rat; settings: IP, 2 U/kg bovine insulin
# Experimental: Female Zucker fa/fa rats were purchased from Monash Animal Services (Monash University, Clayton, Australia). Rats were housed in the Biochemistry and Molecular Biology Animal House (Monash University, Victoria, Australia) and allowed to acclimatize for 7 days in an environmentally controlled room at 22° C. Rats were fed normal chow and water ad libitum. All experiments were performed according to Monash University Animal Care and Ethics Committee guidelines and approved by the Monash University Animal ethics committee.
# Rats of 16-18 weeks of age were fasted overnight with free access to water then anaesthetised with pentobarbitone (Nembutal, Phone Merieux, QLD, Australia) administered intraperitoneally (IP) at 35 mg/kg body weight. Blood glucose was monitored using Medisense glucometers (Abbott Laboratories, Abbott Park, Ill.) for one hour prior to administration of test substances. ISF402 was administered at 3 mg/kg by IP with 2 U/kg of bovine insulin (n=6) and controls were injected IP with insulin alone (n=8). Two experiments were performed where ISF402 was given orally. In the first experiment, controls were given saline orally by gavage (n=5) and the test group were given ISF402 orally at 15 mg/kg (n=5). After 15 minutes, insulin (2 U/kg) was injected IP. […] For both experiments, after administration of peptide blood was collected from the tail vein and glucose measured immediately. […]
# [8] = oral ISF402 followed by IP insulin injection
# [9] = iv, ISF402 4.5 mg/kg without insulin
compound,measurement,setting,value
"CC(C)[C@H](N)C(=O)N[C@@H](Cc1c[nH]cn1)C(=O)N[C@H](C(=O)N[C@@H](CC(=O)O)C(N)=O)[C@@H](C)O [ISF402, Val-His-Thr-Asp-NH2] (H-VHTD-NH2)",solubility at 24 h,"[1]; 37° C., pH 6, read-out: minimum solubility",179 mg/mL
same,solubility at 24 h,"[1]; both at room temperature and 37° C., below pH 4.6 and above pH 6.9, read-out: solubility",300 to 450 mg/mL
same,solubility at 24 h,"[1]; room temperature, pH 6.3, read-out: lowest solubility",165 mg/mL
same,pH of minimum solubility,[1]; both temperatures,5.7-6.3
same,"response in C2C12 cells (sub-maximal, extracellular acidification)",[2]; 0.1 μM ISF402,~20%
same,"cellular response to insulin (extracellular acidification rate, ECAR)","[2]; in the presence of 0.1 μM ISF402, increasing insulin concentrations",increased
same,blood glucose in IPITT compared to control,"[3]; ISF402 15 mg/kg oral, insulin 2 U/kg IP 15 minutes later",did not reach statistical significance
same,blood glucose in IPITT compared to the insulin-injected control group,[3]; ISF402 30 mg/kg oral to the same rats three days after 15 mg/kg,significant reduction in blood glucose
same,time of greatest decrease in blood glucose after administration,"[3]; oral 30 mg/kg ISF402, IPITT",2 h
same,C-peptide concentrations,[3]; [8],did not change
same,circulating insulin concentrations,[3]; [8],did not change
same,blood glucose in IPITT compared to control,[3]; single dose of 30 mg/kg ISF402 oral by gavage,significant decrease in blood glucose
same,Change in Serum Triglyceride levels compared to the 0 time point,[4]; Time 0 minutes,0 mg/dL
same,Change in Serum Triglyceride levels compared to the 0 time point,[4]; Time 10 minutes,+11.3 ± 5.4 mg/dl
same,Change in Serum Triglyceride levels compared to the 0 time point,[4]; Time 45 minutes,−16 ± 7.2^a mg/dl
same,Change in Serum Triglyceride levels compared to the 0 time point,[4]; Time 60 minutes,+44.9 ± 42.7 mg/dl
same,maximum reduction in blood glucose,"[4]; iv, ISF402 4.5 mg/kg without exogenous insulin",1.02 ± 0.27 mmol/L
same,circulating insulin,[4]; [9],no observed increase in circulating insulin
same,serum C-peptide concentrations,[4]; [9],reduced
same,optimum ISF402 dose,"[4]; iv, co-injected with insulin 1 U/kg",1.5 mg/kg
same,optimal intravenous dose of ISF402,"[4]; iv, without exogenous insulin",4.5 mg/kg
same,glucose lowering response across the range of ISF402 doses,"[4]; iv, 0.5-4.5 mg/kg with insulin, 3-10 mg/kg alone, AUC over 60 minutes (FIG. 2A)",dose dependent and bell shaped
same,magnitude of the maximal reduction in blood glucose compared to controls,"[4]; iv, ISF402 4.5 mg/kg vs saline, ISF402 1.5 mg/kg with insulin vs insulin alone",0.95 mmol/L
same,effect on the size of the insulin multimer,[5],reduces the size of the insulin multimer
same,elution volume of insulin when mixed with ISF402,[5]; insulin without pre-mixing eluted at 14-15 mL,16 to 17 mL
"Insulin: Insulin (Bovine pancreas) containing 0.6% zinc, purchased from Sigma",blood glucose response to insulin alone,[6],no decrease at all
same,Change in Serum Triglyceride levels compared to the 0 time point,[4]; Time 0 minutes,0 mg/dL
same,Change in Serum Triglyceride levels compared to the 0 time point,[4]; Time 10 minutes,+39.6 ± 15.1 mg/dl
same,Change in Serum Triglyceride levels compared to the 0 time point,[4]; Time 45 minutes,+21.1 ± 23.9 mg/dl
same,Change in Serum Triglyceride levels compared to the 0 time point,[4]; Time 60 minutes,+33.3 ± 19.8 mg/dl
same,blood glucose response to insulin alone,"[4]; female rats, 1 U/kg of bovine insulin iv",small decrease in blood glucose
same,maximum reduction in blood glucose,"[4]; iv, insulin 1 U/kg + ISF402 1.5 mg/kg, or insulin alone at the same time point",0.68 ± 0.22 mmol/L
same,blood glucose after insulin alone,[7],only a small reduction in blood glucose
